Results on seven compounds are retold here after patent publication US7160911B2, “Diarylcycloalkyl derivatives, process for their preparation and their use as pharmaceuticals” (Sanofi-Aventis Deutschland GmbH, priority 2003, dated 2007).

This experiment concerns the target T1, human PPARalpha (Homo sapiens, UniProt Q07869).
T1 construct: amino acids S167–Y468; expressed in transfected cells; host or cells: HEK (human embryo kidney) cells, stably transfected with the pcDNA3 construct
T1 sequence (Q07869 167-468): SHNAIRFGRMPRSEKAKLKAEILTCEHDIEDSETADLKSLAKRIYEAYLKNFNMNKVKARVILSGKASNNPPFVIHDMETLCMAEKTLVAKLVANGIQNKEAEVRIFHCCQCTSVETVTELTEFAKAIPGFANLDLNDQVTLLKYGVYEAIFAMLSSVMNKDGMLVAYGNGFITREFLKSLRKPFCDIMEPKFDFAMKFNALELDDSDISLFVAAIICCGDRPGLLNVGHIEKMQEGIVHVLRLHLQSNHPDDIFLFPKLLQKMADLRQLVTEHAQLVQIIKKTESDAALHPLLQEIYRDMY
Nature of the experiment: Cellular PPARalpha assay (stably transfected HEK luciferase reporter cell line). The format is cell-based. The settings on record: PPARalpha reporter cell line (HEK, GR-GAL4-humanPPARalpha-LBD). The method, then: Determination of EC50 Values of PPAR Agonists in the Cellular PPARalpha Assay
The potency of substances which bind to human PPARalpha and activate in an agonistic manner is analyzed using a stably transfected HEK cell line (HEK=human embryo kidney) which is referred to here as PPARalpha reporter cell line. It contains two genetic elements, a luciferase reporter element (pdeltaM-GAL4-Luc-Zeo) and a PPARalpha fusion protein (GR-GAL4-humanPPARalpha-LBD) which mediates expression of the luciferase reporter element depending on a PPARalpha ligand. The stably and constitutively expressed fusion protein GR-GAL4-humanPPARalpha-LBD binds in the cell nucleus of the PPARalpha reporter cell line via the GAL4 protein portion to the GAL4 DNA binding motifs 5′-upstream of the luciferase reporter element which is integrated in the genome of the cell line.
There is only little expression of the luciferase reporter gene without addition of a PPARalpha ligand if fatty acid-depleted fetal calf serum (cs-FCS) is used in the assay. PPARalpha ligands bind and activate the PPARalpha fusion protein and thereby bring about expression of the luciferase reporter gene. The luciferase which is formed can be detected by means of chemiluminescence via an appropriate substrate.
The PPARalpha reporter cell line was prepared in 2 stages. Firstly, the luciferase reporter element was constructed and stably transfected into HEK cells. For this purpose, five binding sites of the yeast transcription factor GAL4 (each 5′-CGGAGTACTGTCCTCCGAG-3′) (SEQ ID No. 1) were cloned in 5′-upstream of a 68 bp-long minimal MMTV promoter (Genbank Accession # V01175). The minimal MMTV promoter section contains a […] and a TATA element in order to enable efficient transcription by RNA polymerase II. The cloning and sequencing of the GAL4-MMTV construct took place in analogy to the description of Sambrook J. et. al. (Molecular cloning, Cold Spring Harbor Laboratory Press, 1989). Then the complete Photinus pyralis gene (Genbank Accession # M15077) was cloned in 3′-downstream of the GAL4-MMTV element. After sequencing, the luceriferase reporter element consisting of five GAL4 binding sites, MMTV promoter and luciferase gene was recloned into a plasmid which confers zeocin resistance in order to obtain the plasmid pdeltaM-GAL4-Luc-Zeo. This vector was transfected into HEK cells in accordance with the statements in Ausubel, F. M. et al. (Current protocols in molecular biology, Vol. 1–3, John Wiley & Sons, Inc., 1995).
In a second step, the PPARalpha fusion protein (GR-GAL4-humanPPARalpha-LBD) was introduced into the stable cell clone described. For this purpose, initially the cDNA coding for the N-terminal 76 amino acids of the glucocorticoid receptor (Genbank Accession # P04150) was linked to the cDNA section coding for amino acids 1–147 of the yeast transcription factor GAL4 (Genbank Accession # P04386). The cDNA of the ligand-binding domain of the human PPARalpha receptor (amino acids S167–Y468; Genbank Accession # S74349) was cloned in at the 3′-end of this GR-GAL4 construct. The fusion construct prepared in this way (GR-GAL4-humanPPARalpha-LBD) was recloned into the plasmid pcDNA3 (from Invitrogen) in order to enable constitutive expression therein by the cytomegalovirus promoter. This plasmid was linearized with a restriction endonuclease and stably transfected into the previously described cell clone containing the luciferase reporter element. The finished PPARalpha reporter cell line which contains a luciferase reporter element and constitutively expresses the PPARalpha fusion protein (GR-GAL4-human PPARalpha-LBD) was isolated by selection with zeocin (0.5 mg/ml) and G418 (0.5 mg/ml).
The activity of PPARalpha agonists is determined in a 3-day assay which is described below: […]
A word on the EC50: it is the midpoint of the concentration-response curve. High values mean a need for much substance, low ones an effect from little substance. In turn, `Cc1cccc(CO[C@@H]2CCC[C@H](OCc3nc(-c4ccc5ccccc5c4)oc3C)C2)c1C(=O)O` [Example 1, 2-methyl-6-[(1R,3S)3-(5-methyl-2-naphthalen-2-yloxazol-4-yl-methoxy)cyclohexyloxymethyl]benzoic acid] gave an EC50 of 0.2 nM. Compound `Cc1cccc(CO[C@@H]2CCC[C@H](OCc3nc(-c4ccc5c(c4)OCCO5)oc3C)C2)c1C(=O)O` [Example 3] returned an EC50 of 0.2 nM. In turn, `Cc1ccc(-c2nc(CO[C@H]3CCC[C@@H](OCc4cccc(C)c4C(=O)O)C3)c(C)o2)o1` [Example 4, 2-methyl-6-{(1R,3S)-3-[5-methyl-2-(5-methylfuran-2-yl)oxazol-4-ylmethoxy]cyclohexyloxy-methyl}benzoic acid] showed an EC50 of 0.6 nM.

In turn, `COCCOc1cc(-c2nc(CO[C@H]3CCC[C@@H](OCc4cccc(C)c4C(=O)O)C3)c(C)o2)cc(C(F)(F)F)c1` [Example 10] came in with a concentration for a half-maximal effect (EC50) of 0.3 nM. This EC50 lies about 2-fold lower than the previous one.

On to `Cc1ccc(-c2nc(CO[C@H]3CCC[C@@H](OCc4cccc(C)c4C(=O)O)C3)c(-c3ccccc3)o2)cc1` [Example 11, 2-methyl-6-[(1R,3S)-3-(5-phenyl-2-p-tolyloxazol-4-ylmethoxy)cyclohexyloxy-methyl]benzoic acid], for which the EC50 amounted to 27 nM. This EC50 is about 90-fold higher than that of the compound before.

`COc1cccc(-c2nc(CO[C@H]3CCC[C@@H](OCc4cccc(C)c4C(=O)O)C3)c(-c3ccccc3)o2)c1` [Example 12, 2-{(1R,3S)-3-[2-(3-methoxyphenyl)-5-phenyloxazol-4-ylmethoxy]cyclohexyloxy-methyl}-6-methylbenzoic acid] yielded an EC50 of 34 nM. For `Cc1cccc(CO[C@@H]2CCC[C@H](OCc3coc(C4CCCCC4)n3)C2)c1C(=O)O` [Example 13, 2-[(1R,3S)-3-(2-cyclohexyloxazol-4-ylmethoxy)cyclohexyloxymethyl]-6-methylbenzoic acid], a half-maximal effect (EC50) was put at 0.06 nM.
